These results are taken from article PMC5542402 (Combinatorial chemistry & high throughput screening, 2016).

In experiment [1] the target is T1, PhoP (Mycobacterium tuberculosis, UniProt P71814, D106C). The class given is binding.
Experiment [2] deals with T1, PhoP. The class given is binding. This is another data set of the same source.

Like-named read-outs stand apart in the source and are kept apart here.

As for `CCCCCCCCCC(CC)c1ccc(S(=O)(=O)O)cc1` (centres unmarked) [NCGC00244580], it took 35.8 µM to reach half-maximal inhibition against PhoP [1] (IC50).

In the case of NCGC00161636, inhibition on PhoP [2] was half-maximal at 15.5 µM (IC50).

As usually defined, the IC50 is the concentration at which inhibition is half-maximal.
